The test system of the experiment is ZRT1 promoter. Briefly: ZRT1-lacZ fusion β-galactosidase assay. The format is cell-based, Saccharomyces cerevisiae. To be noted: LZM-EDTA, 16 hours. The protocol:
Zinc uptake assays were performed as described previously for iron uptake (Eide et al. (1992) J. Biol. Chem. 267:20774-20781) except that ^65ZnCl2 (Amersham) and LZM-EDTA were substituted for ^59FeCI3 and LIM-EDTA, respectively. Cells were incubated for 5 minutes in LZM-EDTA plus the indicated concentration of ^65Zn, collected on glass fiber filters (Schleicher and Schuell), washed with 10 ml ice-cold SSW (1 mM EDTA, 20 mM trisodium citrate, 1 mM KH2PO4, 1 mM CaCl2, 5 mM MgSO4, 1 mM NaCl pH 4.2), and cell-associated radioactivity was measured by liquid scintillation counting. Cells were starved for glucose by incubating them in LZM-EDTA prepared without glucose for one hour at 30° C. prior to assay. Michaelis-Menten kinetic values were determined using […] software (Intellikinetics, Princeton, N.J.). Stock solutions of the chloride salts of Co, Cu, Mg, Mn, and Ni were prepared in distilled water at a concentration of 100 mM. The nonradioactive ZnCl2 stock was prepared at 100 mM in 0.02 N HCl and the FeCl3 stock was prepared at 50 mM in 0.1 N HCl. The statistical significance of the differences of values relative to controls was determined with one-way analysis of variance (ANOVA) followed by a Dunnett multiple comparison test. β-galactosidase activity was assayed in cells harvested at an OD600 of 0.5-2.0 as described by Guarente (Guarente, L. (1983) Methods Enzymol. 101:181-191) and activity is expressed as the change in absorbance at 420 nm×1000 divided by (min×ml of culture used×OD600 of the culture). Cell-associated zinc was measured in parallel cultures supplemented with tracer amounts of ^65Zn (10 μM) and nonradioactive zinc to the indicated final concentration. Aliquots (0.5 ml) were filtered, washed with 10 ml ice-cold SSW, and radioactivity measured by liquid scintillation.
The effects of the zrt2 mutation on the regulation of the ZRT1 gene was also examined. […] Furthermore, cell-associated zinc levels are much lower in the zrt1 mutant grown in zinc-limiting conditions. At higher concentrations of extracellular zinc, however, these levels increased to the wild type levels. It was proposed that this accumulation was the result of zinc uptake by the low affinity system. To test this hypothesis and determine the effect of the zrt2 mutation on the pool of intracellular zinc that regulates ZRT1 gene expression, β-galactosidase activity from the ZRT1-lacZ fusion in wild type, zrt1, zrt2, and zrt1zrt2 mutant strains grown in media supplemented with a broad range of zinc concentrations was measured. […] These values are also plotted against the calculated free zinc concentration ([Zn]F). […]

With `[Zn+2]` [zinc], under “zrt1 mutant”, the “calculated free zinc [Zn]F at which β-galactosidase activity decreased to its minimal level” value is roughly 0.12 µM and the “total zinc at which β-galactosidase activity decreased to its minimal level” value was found to be 10 µM. Moreover, where the note is “zrt1zrt2 mutant”, the “calculated free zinc [Zn]F at which ZRT1-lacZ expression was down-regulated” value was roughly 2.4 µM and the “total zinc concentration at which ZRT1-lacZ expression was down-regulated” value was no less than 200 µM.

The record behind these values is patent US6590140B1, “Metal-regulated transporters and uses therefor” (Trustees of Dartmouth College, priority 1996, dated 2003).
